This passage reports mutagenic call results from PubChem BioAssay AID1259407 (Chemical Carcinogenesis Research Information System (CCRIS), 2018).

The series relates to CCRIS mutagenicity, Ames/micronucleus/aberration tests. Kind of series: CCRIS mutagenicity studies.
Setting [1] is: Test System: AMES SALMONELLA TYPHIMURIUM, Strain/Indicator: TA100, Metabolic Activation: NONE, Method: STANDARD PLATE.
The mark [2] stands for this setting: Test System: AMES SALMONELLA TYPHIMURIUM, Strain/Indicator: TA98, Metabolic Activation: HAMSTER, LIVER, S-9, AROCLOR 1254, Method: PREINCUBATION
Where [3] appears, read: Test System: AMES SALMONELLA TYPHIMURIUM, Strain/Indicator: TA98, Metabolic Activation: NONE, Method: PREINCUBATION
Setting [4] is: Test System: AMES SALMONELLA TYPHIMURIUM, Strain/Indicator: TA98, Metabolic Activation: RAT, LIVER, S-9, AROCLOR 1254, Method: PREINCUBATION
Setting [5] is: Test System: AMES SALMONELLA TYPHIMURIUM, Strain/Indicator: TA100, Metabolic Activation: HAMSTER, LIVER, S-9, AROCLOR 1254, Method: PREINCUBATION
Where [6] appears, read: Test System: AMES SALMONELLA TYPHIMURIUM, Strain/Indicator: TA100, Metabolic Activation: NONE, Method: PREINCUBATION
Setting [7] is: Test System: AMES SALMONELLA TYPHIMURIUM, Strain/Indicator: TA100, Metabolic Activation: RAT, LIVER, S-9, AROCLOR 1254, Method: PREINCUBATION
[8] abbreviates: Test System: AMES SALMONELLA TYPHIMURIUM, Strain/Indicator: TA1535, Metabolic Activation: HAMSTER, LIVER, S-9, AROCLOR 1254, Method: PREINCUBATION
Where [9] appears, read: Test System: AMES SALMONELLA TYPHIMURIUM, Strain/Indicator: TA1535, Metabolic Activation: NONE, Method: PREINCUBATION
[10] abbreviates: Test System: AMES SALMONELLA TYPHIMURIUM, Strain/Indicator: TA1535, Metabolic Activation: RAT, LIVER, S-9, AROCLOR 1254, Method: PREINCUBATION
[11] abbreviates: Test System: AMES SALMONELLA TYPHIMURIUM, Strain/Indicator: TA1537, Metabolic Activation: HAMSTER, LIVER, S-9, AROCLOR 1254, Method: PREINCUBATION
[12] abbreviates: Test System: AMES SALMONELLA TYPHIMURIUM, Strain/Indicator: TA1537, Metabolic Activation: NONE, Method: PREINCUBATION
Setting [13] is: Test System: AMES SALMONELLA TYPHIMURIUM, Strain/Indicator: TA1537, Metabolic Activation: RAT, LIVER, S-9, AROCLOR 1254, Method: PREINCUBATION

The source made the active and inactive calls. The rule behind the calls is not given here.

For the compound `CN(C)N=Nc1ccc(C(=O)O)cc1`, the mutagenic call (Test System: AMES SALMONELLA TYPHIMURIUM, Strain/Indicator: G46, Metabolic Activation: NONE, Method: STANDARD PLATE) was “inactive; negative”; the mutagenic call (Test System: AMES SALMONELLA TYPHIMURIUM, Strain/Indicator: G46, Metabolic Activation: RAT, LIVER, S-9, PHENOBARBITAL, Method: STANDARD PLATE) was “active; positive”; the mutagenic call (Test System: AMES SALMONELLA TYPHIMURIUM, Strain/Indicator: TA92, Metabolic Activation: NONE, Method: STANDARD PLATE) was “active; positive”; the mutagenic call (Test System: AMES SALMONELLA TYPHIMURIUM, Strain/Indicator: TA92, Metabolic Activation: RAT, LIVER, S-9, PHENOBARBITAL, Method: PREINCUBATION) is “inactive; negative”; the mutagenic call (Test System: AMES SALMONELLA TYPHIMURIUM, Strain/Indicator: TA92, Metabolic Activation: RAT, LIVER, S-9, PHENOBARBITAL, Method: STANDARD PLATE) is “inactive; negative”; the mutagenic call under setting [1] was “inactive; negative”. The mutagenic call is, setting by setting: (Test System: AMES SALMONELLA TYPHIMURIUM, Strain/Indicator: TA100, Metabolic Activation: RAT, LIVER, S-9, PHENOBARBITAL, Method: STANDARD PLATE) “inactive; negative”; (Test System: E. COLI, Strain/Indicator: TM6, Metabolic Activation: NONE, Method: STANDARD PLATE) “active; positive”; (Test System: E. COLI, Strain/Indicator: TM6, Metabolic Activation: RAT, LIVER, S-9 PHENOBARBITAL, Method: STANDARD PLATE) “active; positive”; (Test System: E. COLI, Strain/Indicator: TM9, Metabolic Activation: NONE, Method: STANDARD PLATE) “active; positive”; (Test System: E. COLI, Strain/Indicator: TM9, Metabolic Activation: RAT, LIVER, S-9 PHENOBARBITAL, Method: STANDARD PLATE) “active; positive”; (Test System: E. COLI, Strain/Indicator: WP2, Metabolic Activation: NONE, Method: STANDARD PLATE) “active; positive”. The mutagenic call is “active; positive” (Test System: E. COLI, Strain/Indicator: WP2, Metabolic Activation: RAT, LIVER, S-9 PHENOBARBITAL, Method: STANDARD PLATE); “active; positive” (Test System: E. COLI, Strain/Indicator: WP2 UVRA, Metabolic Activation: NONE, Method: STANDARD PLATE); “active; positive” (Test System: E. COLI, Strain/Indicator: WP2 UVRA, Metabolic Activation: RAT, LIVER, S-9 PHENOBARBITAL, Method: STANDARD PLATE).
As to `[O-][n+]1cccc2c1C=C[C@H]1O[C@@H]21`, the mutagenic call is, setting by setting: under setting [1], “inactive; negative”; (Test System: AMES SALMONELLA TYPHIMURIUM, Strain/Indicator: TA100, Metabolic Activation: RAT, LIVER, S-9, AROCLOR 1254 (10% OR 20%), Method: STANDARD PLATE) “inactive; negative”.
As for `Oc1cc2c(cc1O)[C@@H]1c3ccc(O)c(O)c3OC[C@]1(O)C2`, the mutagenic call was “inactive; negative” under setting [2]; “inactive; negative” under setting [3]; “inactive; negative” under setting [4]; “inactive; negative” under setting [5]; “inactive; negative” under setting [6]; “inactive; negative” under setting [7]. Besides, the mutagenic call is “inactive; negative” under setting [8]; “inactive; negative” under setting [9]; “inactive; negative” under setting [10]; “inactive; negative” under setting [11]; “inactive; negative” under setting [12]; “inactive; negative” under setting [13].
As for `Clc1ccc(Cl)c(Cl)c1`, the mutagenic call runs as follows: under setting [2], “inactive; negative”; under setting [3], “inactive; negative”; under setting [4], “inactive; negative”; under setting [5], “inactive; negative”; under setting [6], “inactive; negative”; under setting [7], “inactive; negative”. The mutagenic call reads like this: under setting [8], “inactive; negative”; under setting [9], “inactive; negative”; under setting [10], “inactive; negative”; under setting [11], “inactive; negative”; under setting [12], “inactive; negative”; under setting [13], “inactive; negative”.
